Assay results as given in paper PMC7073110, “Molecular Rescue of Dyrk1A Overexpression Alterations in Mice with Fontup® Dietary Supplement: Role of Green Tea Catechins” (International Journal of Molecular Sciences, 2020).
Read-outs that look alike come from different tables or passages of the source. One block for each molecule: values may come before it.

Columns and labels:
[1] = target: T1, DYRK1A-ΔC (truncated DYRK1A, catalytic domain residues 1–502) (Rattus norvegicus, UniProt Q63470); assay: DYRK1A-ΔC inhibition assay, HPLC/UFLC-based with fluorescent peptide substrate; type: biochemical; conditions: for remaining activity at 0.1 µM: read-out: DYRK1A-ΔC Remaining Activity at 0.1 µM; for remaining activity at 1 µM: read-out: DYRK1A-ΔC Remaining Activity at 1 µM; for remaining activity at 100 µM: read-out: DYRK1A-ΔC Remaining Activity at 100 µM; for Effect on DYRK1A-ΔC activity (in words): 0.1–100 µM
T1 construct: catalytic domain (residues 1–502) of rat DYRK1A; 6xHis; made in house; host or cells: Escherichia coli BL21
Experimental: W. Becker (Aachen University, Aachen, Germany) and subcloned into pET28a plasmid to produce recombinant 6xHis-tagged DYRK1A catalytic domain (DYRK1A-ΔC). The pET28-Dyrk1a-ΔC plasmid was transformed into Escherichia coli cells (BL21) for production and purification of the enzyme. Briefly, transformed bacteria cells were grown at 37 °C for 4 h until OD was between 0.6–0.7 and further grown at 37 °C for 5 h in the presence of 0.5 mM isopropyl β-D-1-thiogalactopyranoside (IPTG). Cells were harvested by centrifugation at 6000× g, 4 °C for 10 min and the pellet was washed with PBS. The pellet was re-suspended in PBS supplemented with protease inhibitors, 1 mg/mL lysozyme and 0.1% Triton X-100. After 30 min incubation at 4 °C, the lysate was subjected to sonication on ice (6 min with pulse on 30 s/ off 30 s) and pelleted at 10,000× g, 4 °C for 30 min. The supernatant was incubated with His-select nickel resin (Sigma, Saint-Quentin Fallavier, France) for 2 h at 4 °C under agitation, and the resin was transferred into a column and washed with Tris-HCl 20 mM, pH 8, with 5 mM imidazole. Proteins were eluted in Tris-HCl 20 mM, pH 8, 300 mM imidazole, and dialyzed overnight against Tris-HCl 50 mM, pH 8, dithiothreitol (DTT) 10 mM, MgCl2 5 mM. Purified proteins were quantified with Bradford’s reagent (BioRad). Purity was assessed by sodium dodecyl sulfate-polyacrylamide gel electrophoresis (SDS-PAGE). Proteins were kept at −80 °C until use.
The fluorescent peptide substrate was derived from the sequence of the human transcription factor FKHR that is a physiological substrate of DYRK1A [46]. […] The enzymatic reaction was started by addition of the substrate and the mixture was incubated at 37 °C for 30 min. […] The peptides were monitored by fluorimetry (excitation at 485 nm, emission at 530 nm) and quantified by integration of the peak absorbance area. A calibration curve established with different known concentrations of peptides was used for quantification. For inhibition studies with green tea catechins, the compounds, dissolved in water, were added at four different concentrations (up to 100 µM) to the well prior to addition of ATP (1 mM final concentration). Determination of the mode of inhibition (competitive/non-competitive) of the compounds was obtained by carrying assays with different concentrations of ATP (200, 400 and 800 µM).

[2] = target: T2, DYRK1A native human protein (Homo sapiens, UniProt Q13627); assay: DYRK1A inhibition assay, HPLC-based (native protein PV3785); type: biochemical
T2 construct: purchased Thermo Fisher Scientific PV3785

[3] = EGCG levels in plasma and brain after oral gavage of FontUp; type: in vivo, mice; conditions: for concentration at 4 h / Kp at 4 h: male, mouse, two days; for Kp at 4 h: brain/plasma, read-out: Kp (brain concentration/plasma concentration)
Experimental: FontUp® was prepared daily as described above and strongly mixed at room temperature. Male mice received an oral gavage of three different doses (25, 50 and 75 mg/Kg), in the morning and in the evening for two or eight days. The last dose was administered 4 h before sacrifice.
Blood samples were obtained by retro-orbital sinus sampling with heparinized capillaries, collected into tubes containing a 1/10 volume of 3.8% sodium citrate, and immediately placed on ice. Plasma was isolated by centrifugation at 2500× g for 15 min at 4 °C. 80 µL of plasma samples were mixed with 20 µL 0.2 M NaH2PO4 solution containing 20% ascorbic acid and 0.1% EDTA, pH 3.6 for polyphenol assays. Plasma samples were store at −80 °C until use. Brains and hearts were harvested, snap-frozen in liquid nitrogen, and stored at −80 °C until use. Plasma total hcy, defined as the total concentration of hcy after quantitative reductive cleavage of all disulfide bonds, and total GSH were assayed using a fluorometric HPLC method previously described. ALT concentrations were determined using the Alanine Aminotransferase Activity Assay Kit (Sigma-Aldrich, Saint-Quentin Fallavier, France), based on the pyruvate generated. Plasma galectin-3 (Abcam ELISA kit, Paris, France), and fibronectin (Abcam ELISA kit) were assessed using sandwich ELISA. After removal of unbound conjugates, bound enzyme activity was assessed by use of a chromogenic substrate for measurement at 450 nm by a microplate reader (Flex Station 3, Molecular Devices, Ltd., Wokhingham, UK).
Brains were homogenized with 1.5 mm diameter beads for 2 min at 25 frequencies/second using a tissue lyser II (Qiagen, Hilden, Germany). The homogenates were centrifuged at 13,000 rpm for 10 min at 4 °C. The supernatants were transferred in a clear tube and mixed with the preservative solution as mentioned at one-tenth of its volume.
The catechin contents was analyzed as previously reported. Two hundred microliters of plasma or brain samples homogenates were thawed at room temperature and 50 µL of 0.4 M sodium phosphate buffer (pH 7.4) were added. The sample was mixed with 10 µL of beta-glucuronidase (250 units) and 10 µL of sulfatase (10 units) and then incubated at 37 °C for 45 min. Then the plasma or brain samples were partitioned with ethyl acetate in the ratio of 1:1 (v/v). The liquid-liquid extraction was carried out three times for 1 min by shaking on vortex and the organic phases (upper phases) were pooled. The combined ethyl acetate phases were evaporated under vacuum to dryness. The dry residue was re-dissolved in 50% methanol in water and was kept at −80 °C before HPLC analysis. HPLC was performed with a LC Prominence (Shimadzu, Kyoto, Japan) coupled with a Coulochem III electrode array detector (ESA Inc., Bedford, MA, USA) using a reverse- Interchrom C18 column (3 µm, 150 × 2.1 mm) eluted with the eluent described below at a flow rate of 0.35 mL/min at 45 °C. HPLC analysis was performed using a linear gradient system with mobile phase A (20 mM NaH2PO4) and mobile phase B (acetonitrile). Linear gradient elution was performed as follows: 100% mobile phase A for 10 min; 55% mobile phase A for 30 min and return to 100% mobile phase A for 15 min. The eluent was monitored using the Coulochem-III electrochemical detector (5011 analytical cell) with potential settings at 600 mV (E1) and 700 mV (E2). Quantification was carried out using the external standard method. Catechin quantification was performed after data acquisition using an LC Solution (Shimadzu).

[4] = test system: DYRK1A; conditions: cited from earlier work
[5] = 0.1 µM compound, 1 mM ATP, 60 µM peptide, normalized to no inhibitor
[6] = 1 µM compound, 1 mM ATP, 60 µM peptide, normalized to no inhibitor
[7] = 10 µM compound, 1 mM ATP, 60 µM peptide, normalized to no inhibitor, read-out: DYRK1A-ΔC Remaining Activity at 10 µM
[8] = 100 µM compound, 1 mM ATP, 60 µM peptide, normalized to no inhibitor

SMILES: Oc1cc(O)c2c(c1)O[C@H](c1cc(O)c(O)c(O)c1)[C@H](O)C2 [EGC, epigallocatechin]
remaining activity at 0.1 µM [1, 5]: 99.5 ± 3.2%
remaining activity at 1 µM [1, 6]: 93.6 ± 2.6%
remaining activity at 10 µM [1, 7]: 80.6 ± 11.4%
remaining activity at 100 µM [1, 8]: 81.4 ± 12.8%
Effect on DYRK1A-ΔC activity (in words) ([1]; 1 mM ATP): No effect

remaining activity at 0.1 µM [1, 5]: 78.1 ± 3.6%
remaining activity at 1 µM [1, 6]: 27.1 ± 7.3%
remaining activity at 10 µM ([1]; 10 µM compound, 200 µM ATP, up to 60 min at 37 °C, read-out: DYRK1A-ΔC Remaining Activity With 200 µM ATP): 8 ± 0.8%
remaining activity at 10 µM ([1]; 10 µM compound, 400 µM ATP, up to 60 min at 37 °C, read-out: DYRK1A-ΔC Remaining Activity with 400 µM ATP): 6.5 ± 0.9%
remaining activity at 10 µM ([1]; 10 µM compound, 800 µM ATP, up to 60 min at 37 °C, read-out: DYRK1A-ΔC Remaining Activity with 800 µM ATP): 4 ± 0.5%
remaining activity at 10 µM [1, 7]: 11.8 ± 4.2%
remaining activity at 100 µM [1, 8]: 7.6 ± 2.3%
remaining activity at 0.1 µM ([2]; 0.1 µM compound, 1 mM ATP, 60 µM peptide, native DYRK1A): 69.9 ± 3.9%
remaining activity at 1 µM ([2]; 1 µM compound, 1 mM ATP, 60 µM peptide, native DYRK1A): 12.5 ± 2.4%
remaining activity at 10 µM ([2]; 10 µM compound, 200 µM ATP, up to 60 min at 37 °C, read-out: DYRK1A Remaining Activity with 200 µM ATP): 9.4 ± 1.4%
remaining activity at 10 µM ([2]; 10 µM compound, 400 µM ATP, up to 60 min at 37 °C, read-out: DYRK1A Remaining Activity with 400 µM ATP): 7 ± 1.1%
remaining activity at 10 µM ([2]; 10 µM compound, 800 µM ATP, up to 60 min at 37 °C, read-out: DYRK1A Remaining Activity with 800 µM ATP): 5.4 ± 0.9%
remaining activity at 10 µM ([2]; 10 µM compound, 1 mM ATP, 60 µM peptide, native DYRK1A, read-out: DYRK1A Remaining Activity at 10 µM): 4.6 ± 0.9%
remaining activity at 100 µM ([2]; 100 µM compound, 1 mM ATP, 60 µM peptide, native DYRK1A): 2.3 ± 0.5%
Mode of inhibition of DYRK1A against ATP ([2]; DYRK1A-ΔC and DYRK1A, 10 µM compound, ATP 200–800 µM): noncompetitive inhibitor
SMILES: O=C(O[C@@H]1Cc2c(O)cc(O)cc2O[C@@H]1c1ccc(O)c(O)c1)c1cc(O)c(O)c(O)c1 [ECG, epicatechin gallate]

SMILES: O=C(O[C@@H]1Cc2c(O)cc(O)cc2O[C@@H]1c1cc(O)c(O)c(O)c1)c1cc(O)c(O)c(O)c1 [EGCG, epigallocatechin-3-gallate]
remaining activity at 0.1 µM [1]: 71.3 ± 4.6%
remaining activity at 1 µM [1]: 16.3 ± 2.3%
remaining activity at 10 µM ([1]; read-out: DYRK1A-ΔC Remaining Activity at 10 µM): 6.4 ± 1.1%
remaining activity at 100 µM [1]: 3.5 ± 0.8%
Crossing of the blood-brain barrier (in words) ([3]; WT and TgBACDyrk1A mice, FontUp D2, two days, from Kp): had crossed the BBB
concentration at 4 h ([3]; TgBACDyrk1A, brain, 50 mg/Kg, TgDyrk1A mice, FontUp D2 oral gavage, n = 5, p < 0.07): 50 nM
Kp at 4 h ([3]; TgBACDyrk1A, 50 mg/Kg, TgDyrk1A mice, FontUp D2 oral gavage): 3.6 ± 0.82
concentration at 4 h ([3]; TgBACDyrk1A, plasma, 50 mg/Kg, TgDyrk1A mice, FontUp D2 oral gavage, n = 5): 36 ± 11 nM
concentration at 4 h ([3]; brain, 50 mg/Kg, WT mice, FontUp D2 oral gavage, n = 5): 25 ± 7 nM
Kp at 4 h ([3]; 50 mg/Kg, WT mice, FontUp D2 oral gavage): 1.2 ± 0.33
concentration at 4 h ([3]; plasma, 50 mg/Kg, WT mice, FontUp D2 oral gavage, n = 5): 65 ± 23 nM
concentration at 4 h ([3]; plasma, WT mice, FontUp high dose D3 (75 mg/Kg) oral gavage, last dose 4 h before sacrifice): 104 ± 11.2 nM
concentration at 4 h ([3]; plasma, WT mice, FontUp intermediate dose D2 (50 mg/Kg) oral gavage, last dose 4 h before sacrifice): 63 ± 10.8 nM
concentration at 4 h ([3]; plasma, WT mice, FontUp low dose D1 (25 mg/Kg) oral gavage, last dose 4 h before sacrifice): 28 ± 0.0003 nM
Mode of inhibition of DYRK1A ([4]; against both substrates): non-competitive inhibitor
IC50 ([4]; read-out: IC50 to inhibit DYRK1A activity): 330 nM

remaining activity at 0.1 µM [1, 5]: 89.2 ± 9.5%
remaining activity at 1 µM [1, 6]: 84.1 ± 9.1%
remaining activity at 10 µM [1, 7]: 95.6 ± 8.1%
remaining activity at 100 µM [1, 8]: 88.7 ± 8.2%
Effect on DYRK1A-ΔC activity (in words) ([1]; 1 mM ATP): No effect
SMILES: Oc1cc(O)c2c(c1)O[C@H](c1ccc(O)c(O)c1)[C@H](O)C2 [EC, epicatechin]
